Laboratory results reported in patent US20240299328A1, “COMPOSITIONS COMPRISING 15-HEPE AND METHODS OF TREATING AND/OR PREVENTING HEMATOLOGIC DISORDERS AND RELATED DISEASES” (Afimmune Limited, priority 2023, published 2024).
Read-outs that look alike come from different tables or passages of the source.

Legend:
[1] = test system: UUO mice; format: in vivo
Procedure: UUO Surgery: On day 0 of the study, UUO surgery was performed on mice under pentobarbital sodium anesthesia. The mouse's hair was first shaved and then abdomen cut open to exteriorize the mouse's left ureter. The ureter was ligated 4-0 nylon sutures at two points. The mouse's peritoneum and skin were then closed with sutures, and the mouse transferred to a clean cage until recovered from the anesthesia. Sham operated mice had their left ureter exposed but not ligated. […]
Animals: Seven-week-old female C57BL/6 mice (i.e., animals) were obtained and were housed and fed with a normal diet under controlled conditions. The animals were maintained in a specific-pathogen free (SPF) facility under controlled conditions of temperature (e.g., 23±2° C.), humidity (e.g., 45±10%), lighting (e.g., 12-hour artificial light and dark cycles; light from 8:00 to 20:00) and air exchange. A high pressure was maintained in the experimental room to prevent contamination of the facility. The animals were housed in TPX cages with a maximum of 4 mice per cage. Sterilized Paper-Clean was used for bedding and replaced once a week. Sterilized solid normal diet was provided ad libitum, being placed in a metal lid on the top of the cage. Pure water was also provided ad libitum from a water bottle equipped with a rubber stopper and a sipper tube. Water bottles were replaced once a week, cleaned, and sterilized in an autoclave and reused. Mice were identified by ear punch and each cage was labeled with a specific identification code.
Animal Monitoring and Sacrifice: The viability, clinical signs and behavior for the mice were monitored daily. Individual body weight was measured daily before treatment during the treatment period. […] The animals were sacrificed by exsanguination through direct cardiac puncture under isoflurane anesthesia at Day 14.

[2] = test system: α-SMA, TIMP-1, TGF-β and Collagen Type 1 mRNA; assay: UUO study: quantitative RT-PCR of kidney; format: in vivo; conditions: UUO mice kidney, normalized to 36B4, Day 14, mean ± SD
Procedure: Quantitative RT-PCR: Total ribonucleic acid (RNA) was extracted from kidney samples using RNAiso. One μg of RNA was reverse-transcribed using a reaction mixture containing […] (mM) of magnesium chloride (MgCl2), 40 U RNase inhibitor, 0.5 mM dNTP, 6.28 µM random hexamer, 5× first strand buffer, 10 mM dithiothreitol and 200 U MMLV-RT in a final volume of 20 μL. The reaction was carried out for 1 hour at 37° C., followed by 5 minutes at 99° C. Real-time PCR was performed using real-time PCR DICE and TB Green™ Premix Ex Taq™ II. To calculate the relative […] (mRNA) expression level, the expression of each gene (e.g., α-SMA, TIMP-1, TGF-β and Collagen Type 1) was normalized to that of reference gene 36B4 (gene symbol: Rplp0). Information regarding the PCR-primer sets and the plate layout are described in Tables 1 and 2.

[3] = test system: UUO mice; assay: UUO study: Sirius red staining, kidney fibrosis area; format: in vivo
Procedure: Histopathological analysis: To visualize collagen deposition, kidney sections were stained using picro-Sirius red solution. For quantification of interstitial fibrosis area, bright field images in the corticomedullary region were captured using a digital camera at 200-fold magnification, and the positive areas in 5 fields/section were measured.

[4] = test system: adhesion of SCD patient RBCs to heme-activated HUVECs; assay: Endothelialized microfluidic system: SCD patient RBC adhesion to heme-activated HUVECs; format: cell-based, human; conditions: 6 hours, n=7; for adhesion of RBCs to heme-activated endothelium: treatment of RBCs; for adhesion of SCD patient RBCs to endothelium: treatment of heme-activated HUVECs
Procedure: Whole blood samples were collected from 7 SCD subjects with HbSS genotype at University Hospitals Cleveland Medical Center, Cleveland, OH, USA. RBCs were isolated after centrifugation of whole blood collected in EDTA and were resuspended in basal cell culture medium (EBM; Lonza, Morristown, NJ, USA) with 10 mM of HEPES to reach 20% hematocrit. Human umbilical vein endothelial cells (HUVECs; Lonza, Morristown, NJ, USA) were seeded within the microfluidic channels and cultured for at least 72 hours at 15 dyne/cm2 prior to experiments. Tested concentrations of 15(S)-HEPE were selected based on clinical pharmacokinetics for 15(S)-HEPE at 2 g/day and 4 g/day Epeleuton doses. Incubation of RBCs or HUVECs with 15(S)-HEPE was conducted at 37° C. for 6 hours. In one experiment 15(S)-HEPE-treated tor vehicle-treated RBCs flowed on untreated HUVECs and in the second experiment untreated RBCs flowed on 15(S)-HEPE-treated or vehicle-treated […]. In both cases a short-term acute activation was conducted where RBCs were supplemented with 40 μM heme and injected through the microfluidic channels for 15 minutes. Non-adherent RBCs were washed with basal cell culture medium. Phase-contrast images of the remaining RBCs were recorded using inverted microscope (DMi8 Leica Microsystems Inc. Deerfield, IL, USA) and the images were analyzed based on previous published methods. Statistical significance was assessed using paired t-test

[5] = test system: TGF-β-stimulated intracellular signaling (SMAD2/3 phosphorylation) in LX2 cells; assay: TGF-β-stimulated SMAD2/3 phosphorylation in LX2 liver stellate cells; format: cell-based, human; conditions: 0 μM to 100 μM for 24 hours, then 30 min TGF-β stimulation
[6] = test system: TGF-β signaling in HepG2 cells; assay: TGF-β-induced EMT protein expression and type II TGF-β receptor in HepG2 cells; format: cell-based, human
Procedure: The effects of 15-HEPE on TGF-β-induced signaling and cellular responses were determined. To test the effect of 15-HEPE on TGF-β-induced signaling, the activities of 15-HEPE to regulate TGF-β-stimulated Smad2 phosphorylation and nuclear translocation, both of which are key signaling events leading to TGF-β-induced cellular responses, were tested. One important biological activity of TGF-β is transcriptional activation of genes responsible for epithelial-mesenchymal transition (EMT), which is a crucial event in wound healing, tissue fibrosis, and cancer progression. The effect of 15-HEPE on TGFβ-induced epithelial mesenchymal transition related proteins (such as fibronectin, PAI-1, and N-cadherin etc.) expression in HepG2 and LXR cells were assessed. HepG2 cells (human hepatoma cell line) were treated in increasing doses of 15-HEPE stage II in DMEM containing 0.1% of FBS for 1 hour and continually stimulated with or without 200 picomolar (pM) of TGF-β for 48 hours. […] HepG2 cells (human hepatoma cell line) were treated in increasing doses of 15-HEPE stage II in DMEM containing 0.1% of FBS for 1 hour and continually stimulated with or without 200 picomolar (pM) of TGF-β for 48 hours. The two panels shown in FIG. 18A are two separate experiments run under the same experimental conditions.

[7] = test system: TβR-I, TβR-II, TβR-III, EGFR and caveolin-1 in Mv1Lu cells; assay: Sucrose density gradient analysis of TGF-β receptors in Mv1Lu plasma membranes; format: cell-based, mink
Procedure: The sucrose gradient fractions were then analyzed by Western blot analysis using anti-TβR-I (type I TGF-β receptor), anti-TβR-II (type II TGF-β receptor), anti-TβR-III (type III TGF-β receptor, betaglycan), anti-EGFR (epidermal growth factor receptor), and anti-caveolin-1 antibodies.
The sucrose gradient fractions were then analyzed by Western blot analysis using anti-TβR-I (type I TGF-β receptor-FIG. 18C), anti-TβR-II (type II TGF-β receptor-FIG. 18D), anti-TβR-III (type III TGF-β receptor, betaglycan-FIG. 18E), anti-EGFR (epidermal growth factor receptor-FIG. 18F), and anti-caveolin-1 antibodies (FIG. 18G).

[8] = 5 mg/kg PO QD Day 0-13, Day 14, mean ± SD
[9] = 50 mg/kg PO QD Day 0-13, Day 14, mean ± SD
[10] = 250 mg/kg PO QD Day 0-13, Day 14, mean ± SD
[11] = HepG2 cells, increasing doses, 1 hour, then with or without 200 pM TGF-β for 48 hours

SMILES: CCCCCC(O)/C=C/C=C\C/C=C\CCCCCCC(=O)O (stereo not shown) [DS109, 15-hydroxy-eicosa-8Z, 11Z, 13E-trienoic acid]
- Body Weight [1, 8]: 19.1 ± 0.9 g
- Left Kidney Weight [1, 8]: 533 ± 138 mg
- Left Kidney-to-Body Weight Ratio [1, 8]: 2.79 ± 0.65%
- Right Kidney Weight [1, 8]: 137 ± 7 mg
- Right Kidney-to-Body Weight Ratio [1, 8]: 0.71 ± 0.04%
- Body Weight [1, 9]: 18.6 ± 0.6 g
- Left Kidney Weight [1, 9]: 523 ± 91 mg
- Left Kidney-to-Body Weight Ratio [1, 9]: 2.83 ± 0.50%
- Right Kidney Weight [1, 9]: 135 ± 6 mg
- Right Kidney-to-Body Weight Ratio [1, 9]: 0.73 ± 0.05%
- Body Weight [1, 10]: 18.6 ± 0.7 g
- Left Kidney Weight [1, 10]: 425 ± 105 mg
- Left Kidney-to-Body Weight Ratio [1, 10]: 2.26 ± 0.53%
- Right Kidney Weight [1, 10]: 130 ± 13 mg
- Right Kidney-to-Body Weight Ratio [1, 10]: 0.70 ± 0.05%
- Alpha-SMA mRNA expression level ([2]; 5 mg/kg PO QD Day 0-13): 3.87 ± 0.82
- Collagen Type 1 mRNA expression level ([2]; 5 mg/kg PO QD Day 0-13): 10.76 ± 1.45
- TGF-β mRNA expression level ([2]; 5 mg/kg PO QD Day 0-13): 4.29 ± 0.93
- TIMP-1 mRNA expression level ([2]; 5 mg/kg PO QD Day 0-13): 153.60 ± 37.12
- Alpha-SMA mRNA expression level ([2]; 50 mg/kg PO QD Day 0-13): 4.61 ± 3.15
- Collagen Type 1 mRNA expression level ([2]; 50 mg/kg PO QD Day 0-13): 15.23 ± 11.52
- TGF-β mRNA expression level ([2]; 50 mg/kg PO QD Day 0-13): 6.01 ± 4.77
- TIMP-1 mRNA expression level ([2]; 50 mg/kg PO QD Day 0-13): 167.70 ± 122.60
- Alpha-SMA mRNA expression level ([2]; 250 mg/kg PO QD Day 0-13): 4.85 ± 1.22
- Collagen Type 1 mRNA expression level ([2]; 250 mg/kg PO QD Day 0-13): 13.88 ± 1.91
- TGF-β mRNA expression level ([2]; 250 mg/kg PO QD Day 0-13): 5.48 ± 0.36
- TIMP-1 mRNA expression level ([2]; 250 mg/kg PO QD Day 0-13): 180.90 ± 23.12
- Sirius red-positive area (%)_Median ([3]; 5 mg/kg PO QD Day 0-13, Day 14, median): 3.22 ± 1.47%
- Sirius red-positive area (%)_Median ([3]; 50 mg/kg PO QD Day 0-13, Day 14, median): 3.28 ± 1.41%
- Sirius red-positive area (%)_Median ([3]; 250 mg/kg PO QD Day 0-13, Day 14, median): 3.76 ± 0.81%

SMILES: CC/C=C\C[C@H](O)/C=C/C=C\C/C=C\C/C=C\CCCC(=O)O [15(S)-HEPE, 15(S)-hydroxy-(5Z,8Z,11Z,13E,17Z)-eicosapentaenoic acid]
- adhesion of RBCs to heme-activated endothelium ([4]; 50 µM, p=0.01): significantly decreased
- adhesion of RBCs to heme-activated endothelium ([4]; 100 µM, p=0.001): significantly decreased
- adhesion of SCD patient RBCs to endothelium ([4]; 50 μM, p=0.03): significantly decreased
- adhesion of SCD patient RBCs to endothelium ([4]; 100 μM, p=0.01): significantly decreased

SMILES: CC/C=C\CC(O)/C=C/C=C\C/C=C\C/C=C\CCCC(=O)O (stereo not shown) [15-HEPE, 15-hydroxy-eicosa-5Z,8Z,11Z,13E, 17Z-pentaenoic acid]
- TGF-β-stimulated intracellular signaling (SMAD2/3 phosphorylation) [5]: inhibits
- TGF-β induced epithelial mesenchymal transition (EMT) (pro-fibrotic) protein production [6, 11]: blocked
- type II TGF-β receptor [6, 11]: induced degradation
- TGF-β signaling ([6]; liver cell lines (HepG2, LX2)): directly inhibit
- localization and abundance of TβR-III, EGFR and caveolin-1 ([7]; 100 μM, 0, 1, 4, 24 hours): did not change
- abundance of TβR-I proteins ([7]; 100 μM, 37° C., 0, 1, 4, 24 hours): did not affect the abundance
- TβR-II degradation ([7]; 100 μM, 24 hours treatment): induce degradation
- translocation of TβR-I to lipid-raft ([7]; 100 μM, 24 hours treatment): induced translocation
- TβR-II translocation ([7]; 100 μM, from 1 to 4 hours): induced TβR-II translocation
